Patent publication US12708673B2, “Methods and compositions related to peptides and proteins with c-terminal elements” (Sanford Burnham Prebys Medical Discovery Institute, priority 2008, dated 2026)
“Also recorded” adds a separate entry of the source.

Tests used:
PPC-1 cells [1] = test: T7 phage binding to PPC-1 (PPC1) cells at 4° C., quantified by titration/plaque assay; type: cell-based, human
Procedure: FIG. 2A: Binding of T7 phage to prostate cancer cells depends on the display of a C-terminal arginine on the phage particles. PPC1 cells were incubated with T7 bacteriophage displaying derivatives of the G7 (upper graph) or RPARPAR peptide (SEQ ID NO: 2) (lower graph) at 4° C., and the bound phage was quantified by plaque assay. Binding is expressed in fold over of the non-binding G7 control phage. FIG. 2B: Phage displaying C-terminal arginine is internalized into cultured PPC1 cells (arrow, nuclear internalization; arrowhead, cytoplasmic internalization). A panel of T7 phage clones were incubated at 37° C. with PPC1 cells grown on collagen-coated coverslips, stained with anti T7 antibody and imaged by confocal microscopy.
Phage display. For in vivo phage display, mice were injected intravenously with 10^10 plaque-forming units (pfu) of T7 phage followed by perfusion of the circulatory system and determination of the bound phage in target organs by titration. For cell binding studies on cultured cells (in vitro display) and organ-derived cell suspensions (ex vivo display), the cells were incubated with 10^9 pfu of phage at 4° C., washed, lysed, and quantified by titration. Incubation at 37° C. followed by low pH wash (glycine-HCl, pH 2.5) was used to assess the amount of internalized phage.
For biopanning and phage binding studies (Hoffman, J. A. et al., 2004), cultured cells were grown to confluence and harvested with trypsin and mouse organs were dissociated using Medimachine (BD Biosciences, San Jose, CA). To measure phage binding, 10^6 cells in binding buffer (DMEM containing 1% BSA) were incubated with 10^9 pfu/ml of T7 phage for 1 hour at 4° C. The cells were washed 4 times with the binding buffer, lysed in LB bacterial growth medium containing 1% NP-40, and titrated. Phage internalization assays used the same procedure, except that the cells were incubated with the phage at 37° C., and that an acidic buffer (500 mM sodium chloride, 0.1 M glycine, 1% BSA, pH 2.5) was used instead of binding buffer in the second wash.
Centrifugation on a silicone oil cushion (1.03 g/ml) was used to separate unbound phage from cells during time course experiments. Inhibitors of phage binding and internalization (heparin, chondroitin, glycocalyx removal enzymes, endocytosis inhibitors, free peptides, quantum dots and UV-inactivated phage) were added to the cells 20 minutes prior to incubation with phage. Endocytosis inhibitors used in this study were the following: nystatin (50 μg/ml), genistein (100 μg/ml), chlorpromazine (5 μg/ml), 5-(N-ethyl-N-isopropyl) amiloride (100 μM), wortmannin (10 μM).

wild-type NRP-1 = target: T1, wild-type NRP-1 (Homo sapiens, UniProt O14786); test: Phage binding and internalization in M21 melanoma cells transiently transfected with wild-type NRP-1; type: cell-based
T1 construct: expressed in transfected cells; host or cells: M21 melanoma cells, transient transfection with lipofectamine; pcDNA3.1(+) construct, gift of Dr. Michael Klagsbrun
T1 sequence (O14786 22-923): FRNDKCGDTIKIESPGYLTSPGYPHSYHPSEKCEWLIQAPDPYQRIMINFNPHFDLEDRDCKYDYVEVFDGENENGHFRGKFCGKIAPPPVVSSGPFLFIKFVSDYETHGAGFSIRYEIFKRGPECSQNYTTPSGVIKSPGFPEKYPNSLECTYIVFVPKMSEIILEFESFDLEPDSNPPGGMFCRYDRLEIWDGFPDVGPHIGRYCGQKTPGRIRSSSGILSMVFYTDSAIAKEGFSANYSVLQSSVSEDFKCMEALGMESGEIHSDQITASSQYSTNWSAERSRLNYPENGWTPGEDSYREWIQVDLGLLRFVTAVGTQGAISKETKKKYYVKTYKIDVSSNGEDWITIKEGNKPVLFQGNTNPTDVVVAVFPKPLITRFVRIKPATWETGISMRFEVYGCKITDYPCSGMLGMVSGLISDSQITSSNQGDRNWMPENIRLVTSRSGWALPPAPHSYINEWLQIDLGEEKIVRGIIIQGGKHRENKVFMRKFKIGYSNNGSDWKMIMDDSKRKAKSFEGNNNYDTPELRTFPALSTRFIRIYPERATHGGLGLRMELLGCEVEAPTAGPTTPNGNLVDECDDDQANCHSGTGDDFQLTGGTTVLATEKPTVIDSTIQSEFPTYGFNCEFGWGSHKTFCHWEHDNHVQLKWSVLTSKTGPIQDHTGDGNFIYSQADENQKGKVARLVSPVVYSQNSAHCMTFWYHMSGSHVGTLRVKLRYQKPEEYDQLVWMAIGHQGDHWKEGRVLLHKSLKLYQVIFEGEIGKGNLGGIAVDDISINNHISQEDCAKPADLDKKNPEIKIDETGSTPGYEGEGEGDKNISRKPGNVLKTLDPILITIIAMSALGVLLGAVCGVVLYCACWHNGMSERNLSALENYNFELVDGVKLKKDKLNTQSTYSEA
Procedure: FIGS. 18A-18C show the identification and validation of NRP-1 as the CendR receptor. FIG. 18A: Affinity chromatography of proteins interacting with RPARPAR (SEQ ID NO: 2) peptide. PPC-1 tumor tissue was extracted with a 200 mM glucopyranoside buffer, and the extract was incubated with RPARPAR-coated (SEQ ID NO:2) beads, followed by extensive washes, and elution with 2 mM free RPARPAR (SEQ ID NO:2) peptide. Note appearance of a 130 kDa band, identified by mass spectroscopy as NRP-1, starting in the fraction 3 of the eluate. Upper panel—a silver stained gel, lower panel—an immunoblot with anti-NRP-1 antibody. FIG. 18B: Binding of RPARPAR (SEQ ID NO:2) phage to M21 melanoma cells transiently transfected with wild-type NRP-1 (NRP-1), triple mutant NS346A-E348A-T349A NRP-1 (Mutant NRP-1), or parental pcDNA3.1plasmid (Vector), and to non-transfected M21 cells. FIG. 18C: (c, d), Confocal immunofluorescence images of NRP-1 and RPARPAR (SEQ ID NO:2) T7 phage in PPC-1 cells incubated with phage at 37° C. for 40 minutes (c) and 3 hours (d). The phage and NRP-1 co-localize extensively, but there appears to be a progressive decrease in the overlap (arrowheads in c and d) and appearance of structures positive for the phage only (arrows, d). (e) Immunostaining and confocal imaging of RPARPAR (SEQ ID NO:2) phage and NRP-1 in M21 cells transiently transfected with NRP-1. […]

PPC-1 cells [2] = test: Confocal immunofluorescence co-staining of phage/qdots with cellular markers in PPC-1 cells; type: cell-based, human

Substance: RPARPAR [RPARPAR phage]
- Phage binding to PPC-1 cells (in words) (PPC-1 cells [1]; 4° C.): stronger binding than the GGGGGGR; also recorded: robust binding and internalization
- Time to plateau of phage binding (PPC-1 cells [1]; 4° C.): 20 min
- Phage binding after trypsin treatment of PPC-1 cells (PPC-1 cells [1]; trypsin treatment of cells prior to binding, data not shown): decreased binding
- Phage binding and internalization by M21 cells with forced expression of NRP-1 (wild-type NRP-1): capable of binding and internalizing
- Overlap of phage immunoreactivity with labeled cholera toxin subunit B (PPC-1 cells [2]; 180 minutes): significant overlap
- Overlap of internalized phage staining with subcellular compartment markers (PPC-1 cells [2]; LAMP-1, caveolin-1, calnexin, EEA-1, 60 minutes): did not show any clear overlap
